In ChEMBL document CHEMBL5537201, “Discovery of Unique Bis-Substituted Aromatic Amide Derivatives as Novel Highly Potent Antibiotics for Combating Methicillin-Resistant Staphylococcus aureus (MRSA)” (J Med Chem, 2024):
Values after ≈ are worked out from the molar mass of the structure shown. Blank lines part the entries; values can stand above or below the compound they belong to. Active and inactive are the calls of the source. The calls are words filed in the database; no cut-off is given here.

Columns and labels:
Staphylococcus aureus [1] = assay: Antimicrobial activity against Staphylococcus aureus ATCC6538 assessed as reduction in bacterial growth incubated for 24 hrs by two-fold broth dilution method; type: functional
Staphylococcus aureus [2] = assay: Antimicrobial activity against Staphylococcus aureus N315 assessed as reduction in bacterial growth incubated for 24 hrs by two-fold broth dilution method; type: functional
Streptomyces albus = assay: Antimicrobial activity against Streptomyces albus SHBC D11158 assessed as reduction in bacterial growth incubated for 24 hrs by two-fold broth dilution method; type: functional
Staphylococcus hominis = assay: Antimicrobial activity against methicillin-resistant Staphylococcus hominis assessed as reduction in bacterial growth incubated for 24 hrs by two-fold broth dilution method; type: functional
[3] = Hemolytic activity in rabbit Red blood cell assessed as hemolysis incubated for 1 hr by two-fold microdilution method; type: toxicity, cell-based, Oryctolagus cuniculus, Erythrocyte; conditions: red blood cells (erythrocytes)
[4] = Selectivity index, ratio of HC50 for rabbit Red blood cell to MIC for Staphylococcus aureus ATCC6538; type: toxicity; conditions: red blood cells (erythrocytes), read-out: Selectivity Index
[5] = Cytotoxicity against African green monkey Vero E6 cells assessed as reduction in cell viability measured after 24 hrs by CCK-8 method; type: toxicity, cell-based, Chlorocebus sabaeus, Vero C1008
[6] = Selectivity index, ratio of IC50 for African green monkey Vero E6 cells to MIC for Staphylococcus aureus ATCC6538; type: toxicity; conditions: read-out: Selectivity Index
HeLa = assay: Cytotoxicity against human HeLa cells assessed as reduction in cell viability measured after 24 hrs by CCK-8 method; type: functional, cell-based
[7] = Cytotoxicity against human HaCaT cells assessed as reduction in cell viability measured after 24 hrs by CCK-8 method; type: toxicity, cell-based
[8] = Cytotoxicity against HEK293 cells assessed as reduction in cell viability measured after 24 hrs by CCK-8 method; type: toxicity, cell-based; conditions: human
A549 = assay: Cytotoxicity against human A549 cells assessed as reduction in cell viability measured after 24 hrs by CCK-8 method; type: functional, cell-based; conditions: A549, 24 h
Staphylococcus aureus [9] = assay: Antimicrobial activity against methicillin resistant Staphylococcus aureus clinical isolate MRS1 assessed as reduction in bacterial growth incubated for 24 hrs by two-fold broth dilution method; type: functional
Staphylococcus aureus [10] = assay: Antimicrobial activity against methicillin resistant Staphylococcus aureus clinical isolate MRS23 assessed as reduction in bacterial growth incubated for 24 hrs by two-fold broth dilution method; type: functional
Staphylococcus aureus [11] = assay: Antimicrobial activity against methicillin resistant Staphylococcus aureus clinical isolate MRS70 assessed as reduction in bacterial growth incubated for 24 hrs by two-fold broth dilution method; type: functional
Staphylococcus aureus [12] = assay: Antimicrobial activity against methicillin resistant Staphylococcus aureus clinical isolate MRS207 assessed as reduction in bacterial growth incubated for 24 hrs by two-fold broth dilution method; type: functional
Staphylococcus aureus [13] = assay: Antimicrobial activity against methicillin resistant Staphylococcus aureus clinical isolate MRS108 assessed as reduction in bacterial growth incubated for 24 hrs by two-fold broth dilution method; type: functional
Staphylococcus aureus [14] = assay: Antimicrobial activity against methicillin resistant Staphylococcus aureus clinical isolate MRS152 assessed as reduction in bacterial growth incubated for 24 hrs by two-fold broth dilution method; type: functional
Staphylococcus aureus [15] = assay: Antimicrobial activity against methicillin resistant Staphylococcus aureus clinical isolate MRS200 assessed as reduction in bacterial growth incubated for 24 hrs by two-fold broth dilution method; type: functional
Staphylococcus aureus [16] = assay: Antimicrobial activity against methicillin resistant Staphylococcus aureus clinical isolate MRS273 assessed as reduction in bacterial growth incubated for 24 hrs by two-fold broth dilution method; type: functional
Staphylococcus aureus [17] = assay: Antimicrobial activity against methicillin resistant Staphylococcus aureus clinical isolate MRS153 assessed as reduction in bacterial growth incubated for 24 hrs by two-fold broth dilution method; type: functional
Staphylococcus aureus [18] = assay: Antimicrobial activity against methicillin resistant Staphylococcus aureus clinical isolate MRS84 assessed as reduction in bacterial growth incubated for 24 hrs by two-fold broth dilution method; type: functional
Staphylococcus aureus [19] = assay: Antimicrobial activity against methicillin resistant Staphylococcus aureus clinical isolate MRS121 assessed as reduction in bacterial growth incubated for 24 hrs by two-fold broth dilution method; type: functional
Staphylococcus aureus [20] = assay: Antimicrobial activity against methicillin resistant Staphylococcus aureus clinical isolate MRS97 assessed as reduction in bacterial growth incubated for 24 hrs by two-fold broth dilution method; type: functional
Staphylococcus aureus [21] = assay: Induction of drug resistance in Staphylococcus aureus ATCC6538 assessed as change in MIC measured after 10 passages; type: functional
Staphylococcus aureus [22] = assay: Bactericidal activity against Staphylococcus aureus ATCC6538 assessed as reduction in survival rate at 5 to 10 times MIC measured after 30 to 120 mins by colony counting method relative to control; type: functional; conditions: time 30-120 min

SMILES: O=C(CCC(F)(F)F)N(Cc1cc2ccccc2s1)c1cc(-c2ccc(Cl)cc2)ccc1O
- MIC (Staphylococcus aureus [1]): 1 µg/mL (≈ 2.04 µM)
- MIC (Staphylococcus aureus [2]): 1 µg/mL (≈ 2.04 µM)
- MIC (Streptomyces albus): 4 µg/mL (≈ 8.16 µM)
- MIC (Staphylococcus hominis): 4 µg/mL (≈ 8.16 µM)
- HC50 at 1 h [3]: 1920 µg/mL
- selectivity ratio [4]: > 1000
- IC50 at 24 h [5]: 21.5 µg/mL (≈ 43.8 µM)
- selectivity ratio [6]: 21
- IC50 (HeLa): 22.8 µg/mL (≈ 46.6 µM)
- IC50 at 24 h [7]: 13.8 µg/mL (≈ 28.2 µM)
- IC50 at 24 h [8]: > 25 µg/mL
- IC50 (A549): 16.2 µg/mL (≈ 33.1 µM)
- MIC (Staphylococcus aureus [9]): 6 µg/mL (≈ 12.2 µM)
- MIC (Staphylococcus aureus [10]): 16 µg/mL (≈ 32.7 µM)
- MIC (Staphylococcus aureus [11]): 6 µg/mL (≈ 12.2 µM)
- MIC (Staphylococcus aureus [12]): 16 µg/mL (≈ 32.7 µM)
- MIC (Staphylococcus aureus [13]): 6 µg/mL (≈ 12.2 µM)
- MIC (Staphylococcus aureus [14]): 6 µg/mL (≈ 12.2 µM)
- MIC (Staphylococcus aureus [15]): 16 µg/mL (≈ 32.7 µM)
- MIC (Staphylococcus aureus [16]): 16 µg/mL (≈ 32.7 µM)
- MIC (Staphylococcus aureus [17]): 6 µg/mL (≈ 12.2 µM)
- MIC (Staphylococcus aureus [18]): 3 µg/mL (≈ 6.12 µM)
- MIC (Staphylococcus aureus [19]): 3 µg/mL (≈ 6.12 µM)
- MIC (Staphylococcus aureus [20]): 3 µg/mL (≈ 6.12 µM)
- Activity (Staphylococcus aureus [21]): Active

SMILES: O=C(CCC(F)(F)F)N(Cc1cc2ccccc2s1)c1cc(-c2ccc(F)cc2)ccc1O
- MIC (Staphylococcus aureus [1]): 1 µg/mL (≈ 2.11 µM)
- MIC (Staphylococcus aureus [2]): 1 µg/mL (≈ 2.11 µM)
- MIC (Streptomyces albus): 16 µg/mL (≈ 33.8 µM)
- MIC (Staphylococcus hominis): 8 µg/mL (≈ 16.9 µM)
- Survival (Staphylococcus aureus [22]): <1%
- HC50 at 1 h [3]: 2150 µg/mL
- selectivity ratio [4]: > 1000
- IC50 at 24 h [5]: 17.3 µg/mL (≈ 36.6 µM)
- selectivity ratio [6]: 18
- IC50 (HeLa): 16.7 µg/mL (≈ 35.3 µM)
- IC50 at 24 h [7]: 14.7 µg/mL (≈ 31 µM)
- IC50 at 24 h [8]: 20.7 µg/mL (≈ 43.8 µM)
- IC50 (A549): 10 µg/mL (≈ 21.1 µM)
- MIC (Staphylococcus aureus [9]): 6 µg/mL (≈ 12.7 µM)
- MIC (Staphylococcus aureus [10]): 2 µg/mL (≈ 4.22 µM)
- MIC (Staphylococcus aureus [11]): 6 µg/mL (≈ 12.7 µM)
- MIC (Staphylococcus aureus [12]): 3 µg/mL (≈ 6.34 µM)
- MIC (Staphylococcus aureus [13]): 2 µg/mL (≈ 4.22 µM)
- MIC (Staphylococcus aureus [14]): 6 µg/mL (≈ 12.7 µM)
- MIC (Staphylococcus aureus [15]): 6 µg/mL (≈ 12.7 µM)
- MIC (Staphylococcus aureus [16]): 2 µg/mL (≈ 4.22 µM)
- MIC (Staphylococcus aureus [17]): 2 µg/mL (≈ 4.22 µM)
- MIC (Staphylococcus aureus [18]): 2 µg/mL (≈ 4.22 µM)
- MIC (Staphylococcus aureus [19]): 2 µg/mL (≈ 4.22 µM)
- MIC (Staphylococcus aureus [20]): 2 µg/mL (≈ 4.22 µM)
- Activity (Staphylococcus aureus [21]): inactive

SMILES: COc1cccc(-c2ccc(O)c(N(Cc3cc4ccccc4s3)C(=O)CCC(F)(F)F)c2)c1
- MIC (Staphylococcus aureus [1]): 1 µg/mL (≈ 2.06 µM)
- MIC (Staphylococcus aureus [2]): 1 µg/mL (≈ 2.06 µM)
- MIC (Streptomyces albus): > 32 µg/mL
- MIC (Staphylococcus hominis): > 32 µg/mL
- MIC (Staphylococcus aureus [9]): > 16 µg/mL
- MIC (Staphylococcus aureus [10]): 6 µg/mL (≈ 12.4 µM)
- MIC (Staphylococcus aureus [11]): > 16 µg/mL
- MIC (Staphylococcus aureus [12]): > 16 µg/mL
- MIC (Staphylococcus aureus [13]): 6 µg/mL (≈ 12.4 µM)
- MIC (Staphylococcus aureus [14]): > 16 µg/mL
- MIC (Staphylococcus aureus [15]): > 16 µg/mL
- MIC (Staphylococcus aureus [16]): 16 µg/mL (≈ 33 µM)
- MIC (Staphylococcus aureus [17]): > 16 µg/mL
- MIC (Staphylococcus aureus [18]): 16 µg/mL (≈ 33 µM)
- MIC (Staphylococcus aureus [19]): > 16 µg/mL
- MIC (Staphylococcus aureus [20]): 6 µg/mL (≈ 12.4 µM)

SMILES: CCCCC(=O)N(Cc1cc2ccccc2o1)c1ccc2ccccc2c1O
- MIC (Staphylococcus aureus [1]): 31.2 µg/mL (≈ 83.7 µM)
- MIC (Staphylococcus aureus [2]): 62.5 µg/mL (≈ 167 µM)

SMILES: C=CC(=O)N(Cc1cc2ccccc2s1)c1ccc2ccccc2c1O
- MIC (Staphylococcus aureus [1]): 7.8 µg/mL (≈ 21.7 µM)
- MIC (Staphylococcus aureus [2]): 7.8 µg/mL (≈ 21.7 µM)

SMILES: O=C(CCC(F)(F)F)N(Cc1cc2ccccc2s1)c1cc(-c2ccc(Br)cc2)ccc1O
- MIC (Staphylococcus aureus [1]): 2 µg/mL (≈ 3.74 µM)
- MIC (Staphylococcus aureus [2]): 3 µg/mL (≈ 5.61 µM)

SMILES: CCCCC(=O)N(Cc1cc2ccccc2s1)c1ccc2ccccc2c1O
- MIC (Staphylococcus aureus [1]): 15.6 µg/mL (≈ 40.1 µM)
- MIC (Staphylococcus aureus [2]): 15.6 µg/mL (≈ 40.1 µM)

SMILES: CC(C)(C)c1ccc(-c2ccc(O)c(N(Cc3cc4ccccc4s3)C(=O)CCC(F)(F)F)c2)cc1
- MIC (Staphylococcus aureus [1]): 2 µg/mL (≈ 3.91 µM)
- MIC (Staphylococcus aureus [2]): 1 µg/mL (≈ 1.95 µM)

SMILES: O=C(CCCCl)N(Cc1cc2ccccc2s1)c1ccc2ccccc2c1O
- MIC (Staphylococcus aureus [1]): 7.8 µg/mL (≈ 19 µM)
- MIC (Staphylococcus aureus [2]): 31.2 µg/mL (≈ 76.2 µM)

SMILES: O=C(CCC(F)(F)F)N(Cc1cc2ccccc2s1)c1ccc(-c2ccccc2)c(O)c1
- MIC (Staphylococcus aureus [1]): 2 µg/mL (≈ 4.39 µM)
- MIC (Staphylococcus aureus [2]): > 16 µg/mL

SMILES: CCCCC(=O)N(Cc1ccc2oc3ccccc3c2c1)c1ccc2ccccc2c1O
- MIC (Staphylococcus aureus [1]): 62.5 µg/mL (≈ 148 µM)
- MIC (Staphylococcus aureus [2]): 125 µg/mL (≈ 295 µM)

The next lines start with the values.

- MIC (Staphylococcus aureus [1]): 31.2 µg/mL (≈ 79.8 µM)
- MIC (Staphylococcus aureus [2]): 62.5 µg/mL (≈ 160 µM)
SMILES: CCCCC(=O)N(Cc1ccc2c(c1)OCCO2)c1ccc2ccccc2c1O

- MIC (Staphylococcus aureus [1]): > 16 µg/mL
- MIC (Staphylococcus aureus [2]): > 16 µg/mL
SMILES: O=C(CCC(F)(F)F)N(Cc1cc2ccccc2s1)c1cc(-c2ccncc2)ccc1O

- MIC (Staphylococcus aureus [1]): 62.5 µg/mL (≈ 140 µM)
- MIC (Staphylococcus aureus [2]): 62.5 µg/mL (≈ 140 µM)
SMILES: CCCCC(=O)N(Cc1cc(C(C)(C)C)cc(C(C)(C)C)c1)c1ccc2ccccc2c1O

- MIC (Staphylococcus aureus [1]): > 250 µg/mL
- MIC (Staphylococcus aureus [2]): > 250 µg/mL
SMILES: C=CCCC(=O)N(Cc1cc2ccccc2s1)c1ccc2ccccc2c1O

- MIC (Staphylococcus aureus [1]): > 250 µg/mL
- MIC (Staphylococcus aureus [2]): > 250 µg/mL
SMILES: CCCC(=O)N(Cc1cc2ccccc2s1)c1ccc2ccccc2c1O
